Data: patent US20240101540A1, “TARGETED PROTEIN DEGRADATION OF PARP14 FOR USE IN THERAPY” (Ribon Therapeutics, Inc., priority 2022, published 2024)
Counter-ions that a name gives are not always drawn.

Biological target: T1, HiBiT tagged PARP14 (Homo sapiens, UniProt Q460N5)
T1 construct: engineered to contain a HiBiT tag on both alleles of the PARP14 gene; endogenous in cells; host or cells: Jurkat cells stably transfected with LgBiT (Promega), PARP14 locus edited by CRISPR/Cas9
Test: HiBiT assay for the degradation of PARP14 (HiBiT tagged PARP14 in LgBiT expressing Jurkat cells, 2 or 24 hours)
Type: cell-based
Conditions: Assay B (Example B): HiBiT tagged PARP14 degradation in LgBiT expressing Jurkat cells, read-out: DC50
Outline: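 Luminescence from HiBiT–LgBiT complementation served as proxy for endogenous PARP14 level in edited LgBiT Jurkat cells (5,000/well). After 2 or 24 h compound exposure at 37 °C, signal read with Live Cell Substrate, expressed as % of 0.1% DMSO control, and fitted (4-parameter, free Hill) for DC50.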

T1 sequence (Q460N5 whole entry): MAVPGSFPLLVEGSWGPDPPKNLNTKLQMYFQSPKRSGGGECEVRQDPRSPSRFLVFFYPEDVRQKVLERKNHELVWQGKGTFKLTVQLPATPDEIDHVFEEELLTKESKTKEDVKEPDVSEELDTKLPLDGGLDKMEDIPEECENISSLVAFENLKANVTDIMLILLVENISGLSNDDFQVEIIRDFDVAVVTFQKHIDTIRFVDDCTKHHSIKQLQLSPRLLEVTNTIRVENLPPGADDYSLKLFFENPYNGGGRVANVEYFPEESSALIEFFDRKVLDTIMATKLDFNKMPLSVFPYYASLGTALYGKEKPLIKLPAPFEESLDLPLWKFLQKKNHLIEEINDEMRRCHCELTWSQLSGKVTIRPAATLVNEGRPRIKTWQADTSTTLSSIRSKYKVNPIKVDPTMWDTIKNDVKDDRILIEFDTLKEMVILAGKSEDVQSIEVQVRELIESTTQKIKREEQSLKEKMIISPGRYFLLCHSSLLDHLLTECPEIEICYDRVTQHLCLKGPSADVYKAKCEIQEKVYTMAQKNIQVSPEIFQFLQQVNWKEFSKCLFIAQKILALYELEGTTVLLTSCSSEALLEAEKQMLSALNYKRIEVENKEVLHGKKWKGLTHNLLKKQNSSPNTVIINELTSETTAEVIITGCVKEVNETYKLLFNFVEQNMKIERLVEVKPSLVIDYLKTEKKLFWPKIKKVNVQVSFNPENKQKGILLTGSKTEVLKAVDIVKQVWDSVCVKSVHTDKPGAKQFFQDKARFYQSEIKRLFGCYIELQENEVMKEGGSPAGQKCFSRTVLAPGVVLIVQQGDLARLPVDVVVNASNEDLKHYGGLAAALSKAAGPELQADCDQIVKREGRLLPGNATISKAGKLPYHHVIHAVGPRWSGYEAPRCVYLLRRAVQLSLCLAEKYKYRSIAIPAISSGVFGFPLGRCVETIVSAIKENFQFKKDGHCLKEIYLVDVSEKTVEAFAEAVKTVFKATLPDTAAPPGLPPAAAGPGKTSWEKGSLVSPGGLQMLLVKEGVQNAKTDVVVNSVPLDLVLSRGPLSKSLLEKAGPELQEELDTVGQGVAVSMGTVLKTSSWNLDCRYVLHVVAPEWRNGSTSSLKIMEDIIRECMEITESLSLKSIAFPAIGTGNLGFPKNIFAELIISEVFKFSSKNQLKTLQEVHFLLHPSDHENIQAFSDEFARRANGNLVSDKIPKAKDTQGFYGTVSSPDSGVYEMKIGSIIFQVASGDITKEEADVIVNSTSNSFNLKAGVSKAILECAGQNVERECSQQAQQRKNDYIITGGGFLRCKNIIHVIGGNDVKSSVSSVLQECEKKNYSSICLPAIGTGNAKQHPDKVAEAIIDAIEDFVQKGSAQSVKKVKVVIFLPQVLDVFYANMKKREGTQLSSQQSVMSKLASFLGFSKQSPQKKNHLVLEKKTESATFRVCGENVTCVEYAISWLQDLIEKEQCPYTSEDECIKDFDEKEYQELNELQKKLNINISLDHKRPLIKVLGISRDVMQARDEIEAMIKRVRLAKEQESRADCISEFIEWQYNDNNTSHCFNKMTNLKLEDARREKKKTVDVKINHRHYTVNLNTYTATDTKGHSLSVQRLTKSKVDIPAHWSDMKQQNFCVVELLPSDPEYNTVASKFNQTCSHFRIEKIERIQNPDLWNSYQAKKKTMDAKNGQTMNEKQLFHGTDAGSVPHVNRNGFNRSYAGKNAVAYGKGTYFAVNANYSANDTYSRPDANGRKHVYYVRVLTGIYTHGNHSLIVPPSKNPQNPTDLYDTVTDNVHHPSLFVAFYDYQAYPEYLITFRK

Structure (SMILES) | DC50 [µM]
O=C1CCC(Nc2ccc(N3CCC(C(=O)N4CCC(N5CCC(COc6cc(F)c7c(=O)[nH]c(COC8CCOCC8)nc7c6)CC5)CC4)CC3)c(F)c2)C(=O)N1 (centres unmarked) [Example 172, 3-((3-fluoro-4-(4-(4-(((5-fluoro-4-oxo-2-(((tetrahydro-2H-pyran-4-yl)oxy)methyl)-3,4-dihydroquinazolin-7-yl)oxy)methyl)-[1,4′-bipiperidine]-1′-carbonyl)piperidin-1-yl)phenyl)amino)piperidine-2,6-dione] | < 0.03
O=C1CCC(Nc2ccc(N3CCC(C(=O)N4CCC(N5CCC(COc6cc(F)c7c(=O)[nH]c(CCC8CCOCC8)nc7c6)CC5)CC4)CC3)c(F)c2)C(=O)N1 (centres unmarked) [Example 175, 3-((3-fluoro-4-(4-(4-(((5-fluoro-4-oxo-2-(2-(tetrahydro-2H-pyran-4-yl)ethyl)-3,4-dihydroquinazolin-7-yl)oxy)methyl)-[1,4′-bipiperidine]-1′-carbonyl)piperidin-1-yl)phenyl)amino)piperidine-2,6-dione] | < 0.03
O=C1CCC(Nc2ccc(N3CCC(C(=O)N4CC(N5CCC(COc6cc(F)c7c(=O)[nH]c(COC8CCOCC8)nc7c6)CC5)C4)CC3)c(F)c2)C(=O)N1 (centres unmarked) [Example 177, 3-((3-fluoro-4-(4-(3-(4-(((5-fluoro-4-oxo-2-(((tetrahydro-2H-pyran-4-yl)oxy)methyl)-3,4-dihydroquinazolin-7-yl)oxy)methyl)piperidin-1-yl)azetidine-1-carbonyl)piperidin-1-yl)phenyl)amino)piperidine-2,6-dione] | < 0.03
O=C1CCC(Nc2ccc(N3CCC(C(=O)N4CC(N5CCC(COc6cc(F)c7c(=O)[nH]c(CC8CC8)nc7c6)CC5)C4)CC3)c(F)c2)C(=O)N1 (centres unmarked) [Example 178, 3-((4-(4-(3-(4-(((2-(cyclopropylmethyl)-5-fluoro-4-oxo-3,4-dihydroquinazolin-7-yl)oxy)methyl)piperidin-1-yl)azetidine-1-carbonyl)piperidin-1-yl)-3-fluorophenyl)amino)piperidine-2,6-dione] | < 0.03
O=C1CCN(c2ccc(N3CCC(CN4CCC(COc5cc(F)c6c(=O)[nH]c(COC7CCOCC7)nc6c5)CC4)CC3)c(F)c2)C(=O)N1 [Example 180, 1-(3-fluoro-4-(4-((4-(((5-fluoro-4-oxo-2-(((tetrahydro-2H-pyran-4-yl)oxy)methyl)-3,4-dihydroquinazolin-7-yl)oxy)methyl)piperidin-1-yl)methyl)piperidin-1-yl)phenyl)dihydropyrimidine-2,4(1H,3H)-dione] | < 0.03
Cn1nc(N2CCC(=O)NC2=O)c2ccc(N3CCC(CN4CCC(COc5cc(F)c6c(=O)[nH]c(CSC7CCOCC7)nc6c5)CC4)CC3)cc21 [Example 181, 1-(6-(4-((4-(((5-fluoro-4-oxo-2-(((tetrahydro-2H-pyran-4-yl)thio)methyl)-3,4-dihydroquinazolin-7-yl)oxy)methyl)piperidin-1-yl)methyl)piperidin-1-yl)-1-methyl-1H-indazol-3-yl)dihydropyrimidine-2,4(1H,3H)-dione] | < 0.03
Cn1nc(N2CCC(=O)NC2=O)c2cc(F)c(N3CCC(CN4CCC(COc5cc(F)c6c(=O)[nH]c(CSC7CCOCC7)nc6c5)CC4)CC3)cc21 [Example 182, 1-(5-fluoro-6-(4-((4-(((5-fluoro-4-oxo-2-(((tetrahydro-2H-pyran-4-yl)thio)methyl)-3,4-dihydroquinazolin-7-yl)oxy)methyl)piperidin-1-yl)methyl)piperidin-1-yl)-1-methyl-1H-indazol-3-yl)dihydropyrimidine-2,4(1H,3H)-dione] | < 0.03
Cn1nc(N2CCC(=O)NC2=O)c2cc(F)c(N3CCC(CN4CCC(COc5cc(F)c6c(=O)[nH]c(COC7CCOCC7)nc6c5)CC4)CC3)cc21 [Example 183, 1-(5-fluoro-6-(4-((4-(((5-fluoro-4-oxo-2-(((tetrahydro-2H-pyran-4-yl)oxy)methyl)-3,4-dihydroquinazolin-7-yl)oxy)methyl)piperidin-1-yl)methyl)piperidin-1-yl)-1-methyl-1H-indazol-3-yl)dihydropyrimidine-2,4(1H,3H)-dione] | < 0.03
Cn1nc(N2CCC(=O)NC2=O)c2ccc(N3CCC(COc4cc(F)c5c(=O)[nH]c(COC6CCOCC6)nc5c4)CC3)cc21 [Example 184, 1-(6-(4-(((5-fluoro-4-oxo-2-(((tetrahydro-2H-pyran-4-yl)oxy)methyl)-3,4-dihydroquinazolin-7-yl)oxy)methyl)piperidin-1-yl)-1-methyl-1H-indazol-3-yl)dihydropyrimidine-2,4(1H,3H)-dione] | < 0.03
Cn1nc(N2CCC(=O)NC2=O)c2cc(F)c(N3CC(N4CCC(COc5cc(F)c6c(=O)[nH]c(CSC7CCOCC7)nc6c5)CC4)C3)cc21 [Example 185, 1-(5-fluoro-6-(3-(4-(((5-fluoro-4-oxo-2-(((tetrahydro-2H-pyran-4-yl)thio)methyl)-3,4-dihydroquinazolin-7-yl)oxy)methyl)piperidin-1-yl)azetidin-1-yl)-1-methyl-1H-indazol-3-yl)dihydropyrimidine-2,4(1H,3H)-dione] | < 0.03
Cn1nc(N2CCC(=O)NC2=O)c2ccc(C3CCN(CCOc4cc(F)c5c(=O)[nH]c(CSC6CCOCC6)nc5c4)CC3)cc21 [Example 186, 1-(6-(1-(2-((5-fluoro-4-oxo-2-(((tetrahydro-2H-pyran-4-yl)thio)methyl)-3,4-dihydroquinazolin-7-yl)oxy)ethyl)piperidin-4-yl)-1-methyl-1H-indazol-3-yl)dihydropyrimidine-2,4(1H,3H)-dione] | < 0.03
Cn1nc(N2CCC(=O)NC2=O)c2ccc(C3CCN(C4CCN(CCOc5cc(F)c6c(=O)[nH]c(CSC7CCOCC7)nc6c5)CC4)CC3)cc21 [Example 187, 1-(6-(1′-(2-((5-fluoro-4-oxo-2-(((tetrahydro-2H-pyran-4-yl)thio)methyl)-3,4-dihydroquinazolin-7-yl)oxy)ethyl)-[1,4′-bipiperidin]-4-yl)-1-methyl-1H-indazol-3-yl)dihydropyrimidine-2,4(1H,3H)-dione diformate] | < 0.03
O=C1CCC(N2C(=O)c3ccc(N4CCC(N5CCC(COc6cc(F)c7c(=O)[nH]c(CSC8CCOCC8)nc7c6)CC5)CC4)cc3C2=O)C(=O)N1 (centres unmarked) [Example 190, 2-(2,6-dioxopiperidin-3-yl)-5-(4-(((5-fluoro-4-oxo-2-(((tetrahydro-2H-pyran-4-yl)thio)methyl)-3,4-dihydroquinazolin-7-yl)oxy)methyl)-[1,4′-bipiperidin]-1′-yl)isoindoline-1,3-dione] | < 0.03
O=C1CCC(N2C(=O)c3ccc(N4CCC(N5CC(N6CCC(COc7cc(F)c8c(=O)[nH]c(CSC9CCOCC9)nc8c7)CC6)C5)CC4)cc3C2=O)C(=O)N1 (centres unmarked) [Example 191, 2-(2,6-dioxopiperidin-3-yl)-5-(4-(3-(4-(((5-fluoro-4-oxo-2-(((tetrahydro-2H-pyran-4-yl)thio)methyl)-3,4-dihydroquinazolin-7-yl)oxy)methyl)piperidin-1-yl)azetidin-1-yl)piperidin-1-yl)isoindoline-1,3-dione] | < 0.03

Now from value to compound:

DC50 [µM] | Structure (SMILES)
< 0.03 | O=C1CCC(Nc2ccc(N3CCC(C(=O)N4CCC(N5CCC(COc6cc(F)c7c(=O)[nH]c(CSC8CCOCC8)nc7c6)CC5)CC4)CC3)c(F)c2)C(=O)N1 (centres unmarked) [Example 173, 3-((3-fluoro-4-(4-(4-(((5-fluoro-4-oxo-2-(((tetrahydro-2H-pyran-4-yl)thio)methyl)-3,4-dihydroquinazolin-7-yl)oxy)methyl)-[1,4′-bipiperidine]-1′-carbonyl)piperidin-1-yl)phenyl)amino)piperidine-2,6-dione formate]
< 0.03 | O=C1CCC(Nc2ccc(N3CCN(CC(=O)N4CCC(COc5cc(F)c6c(=O)[nH]c(CSC7CCOCC7)nc6c5)CC4)CC3)c(F)c2)C(=O)N1 (centres unmarked) [Example 174, 3-((3-fluoro-4-(4-(2-(4-(((5-fluoro-4-oxo-2-(((tetrahydro-2H-pyran-4-yl)thio)methyl)-3,4-dihydroquinazolin-7-yl)oxy)methyl)piperidin-1-yl)-2-oxoethyl)piperazin-1-yl)phenyl)amino)piperidine-2,6-dione]
< 0.03 | O=C1CCC(Nc2ccc(N3CCC(C(=O)N4CCC(N5CCC(COc6cc(F)c7c(=O)[nH]c(CSC8CCOCC8)nc7c6)CC5)C4)CC3)c(F)c2)C(=O)N1 (centres unmarked) [Example 176, 3-((3-fluoro-4-(4-(3-(4-(((5-fluoro-4-oxo-2-(((tetrahydro-2H-pyran-4-yl)thio)methyl)-3,4-dihydroquinazolin-7-yl)oxy)methyl)piperidin-1-yl)pyrrolidine-1-carbonyl)piperidin-1-yl)phenyl)amino)piperidine-2,6-dione]
< 0.03 | O=C1CCC(Nc2ccc(N3CCC(N4CC(CC(=O)N5CCC(COc6cc(F)c7c(=O)[nH]c(CSC8CCOCC8)nc7c6)CC5)C4)CC3)c(F)c2)C(=O)N1 (centres unmarked) [Example 179, 3-((3-fluoro-4-(4-(3-(2-(4-(((5-fluoro-4-oxo-2-(((tetrahydro-2H-pyran-4-yl)thio)methyl)-3,4-dihydroquinazolin-7-yl)oxy)methyl)piperidin-1-yl)-2-oxoethyl)azetidin-1-yl)piperidin-1-yl)phenyl)amino)piperidine-2,6-dione]
< 0.03 | O=C1CCC(Nc2ccc(C(=O)N3CCN(CCN4CCC(COc5cc(F)c6c(=O)[nH]c(CSC7CCOCC7)nc6c5)CC4)CC3)cc2)C(=O)N1 (centres unmarked) [Example 188, 3-((4-(4-(2-(4-(((5-fluoro-4-oxo-2-(((tetrahydro-2H-pyran-4-yl)thio)methyl)-3,4-dihydroquinazolin-7-yl)oxy)methyl)piperidin-1-yl)ethyl)piperazine-1-carbonyl)phenyl)amino)piperidine-2,6-dione]
< 0.03 | O=C1CCC(Nc2ccc(N3CCN(C(=O)CN4CCC(COc5cc(F)c6c(=O)[nH]c(CSC7CCOCC7)nc6c5)CC4)CC3)c(F)c2)C(=O)N1 (centres unmarked) [Example 189, 3-((3-fluoro-4-(4-(2-(4-(((5-fluoro-4-oxo-2-(((tetrahydro-2H-pyran-4-yl)thio)methyl)-3,4-dihydroquinazolin-7-yl)oxy)methyl)piperidin-1-yl)acetyl)piperazin-1-yl)phenyl)amino)piperidine-2,6-dione]
